Active and inactive are the calls of the source. The calls are words filed in the database; no cut-off is given here.
Key:
Format in all cases: functional, cell-based
[1] = tested on: K562; test: Cytotoxicity against human K562 cells by MTT assay
[2] = tested on: K562; test: Cytotoxicity against human adriamycin resistant K562 cells by MTT assay
[3] = tested on: BGC-823; test: Cytotoxicity against human BGC823 cells by MTT assay
[4] = tested on: HepG2; test: Cytotoxicity against human HepG2 cells by MTT assay

SMILES | IC50 [1] [µM] | Activity [2] | Activity [3] | Activity [4] | Activity [1]
C=C1[C@@H]2[C@H]3OC(=O)[C@@H](CNCC4CCC(=O)O4)[C@@H]3CCC(=C)[C@@H]2C[C@@H]1O (stereo partly specified) [SCORZOAUSTRIACIN] | 11.3 | inactive | inactive | inactive | 
CC1=CC(=O)C2=C(COC(=O)CC(C)C)C[C@H](O)[C@@H]3[C@H](OC(=O)[C@H]3C)[C@@H]12 |  | inactive | inactive | inactive | inactive
CC1=CC(=O)C2=C(COC(=O)CC(C)C)C[C@H](OS(=O)(=O)O)[C@@H]3[C@H](OC(=O)[C@H]3C)[C@@H]12 |  | inactive | inactive | inactive | inactive
C=C1[C@@H]2[C@H]3OC(=O)[C@@H](CNCC4CCC(=O)O4)[C@@H]3CCC(=C)[C@@H]2C[C@@H]1O[C@@H]1O[C@H](CO)[C@@H](O)[C@H](O)[C@H]1O (stereo partly specified) |  | inactive | inactive | inactive | inactive
